Source: ChEMBL document CHEMBL1681737, “Isatin 1,2,3-triazoles as potent inhibitors against caspase-3” (Bioorg Med Chem Lett, 2011)

Molecular target: T1, Caspase-3 (Homo sapiens, UniProt P42574)
T1 sequence (P42574 whole entry): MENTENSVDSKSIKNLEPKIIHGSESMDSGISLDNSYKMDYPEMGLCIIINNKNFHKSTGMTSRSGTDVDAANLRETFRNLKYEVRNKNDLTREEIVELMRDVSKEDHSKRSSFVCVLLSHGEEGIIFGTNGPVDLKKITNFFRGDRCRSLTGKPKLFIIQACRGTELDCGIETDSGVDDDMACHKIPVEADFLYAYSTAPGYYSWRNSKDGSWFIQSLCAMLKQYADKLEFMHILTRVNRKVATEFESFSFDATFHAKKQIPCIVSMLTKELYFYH
Assay: Inhibition of caspase 3 using Ac-DEVD-AFC fluorogenic substrate

IC50 [nM]	Structure (SMILES)
16.7	O=C1C(=O)N(Cc2cn(CCF)nn2)c2ccc(S(=O)(=O)N3CCC[C@H]3COc3ccccc3)cc21
0.5	O=C1C(=O)N(Cc2cn(CCF)nn2)c2ccc(S(=O)(=O)N3CCC[C@H]3COc3ccc(F)cc3F)cc21
1000	O=C1Nc2ccc([N+](=O)[O-])cc2C1=O [5-NITROISATIN]
